# Source: patent US20110015226A1, “Treatment of Energy Utilization Disease” (SUMMIT CORPORATION PLC, priority 2008, published 2011)
# Legend:
# Assay type in all cases: biochemical
# α-D-glucosidase (Yeast) = target: T1, α-D-glucosidase (Yeast) (Saccharomyces cerevisiae, UniProt P53341); experiment: Glycosidase inhibition: α-D-glucosidase (Yeast); conditions: compounds tested at 0.8 mM
# T1 construct: purchased Sigma
# From the text: (§1) The results tabulated below were obtained using commercially available glycosidases and p-nitrophenyl-substrates using standard methods described for example by Watson et al (1997) Phytochemistry 46 255-259. All enzymes and substrates were bought from Sigma. Enzyme and substrate solutions were made using sodium phosphate buffers at the pH optima values. The enzymes used were α-D-glucosidase Saccharomyces cerevisiae, Bacillus stearothermophilus, Oryzae sativa), β-D-glucosidase (Almond), α-D-mannosidase (Jack bean), α-D-galactosidase (Green coffee beans), β-D-galactosidase (Bovine liver), α-L-fucosidase (Bovine kidney), N-acetyl-β-D-glucosaminidase (Bovine kidney, Jack bean, Aspergillus oryzae), Naringinase (Penicillium decumbens) and amyloglucosidase (Aspergillus niger). All enzymes were used with the appropriate p-nitrophenyl substrates (5 mM). Amyloglucosidase activity was measured using amylopectin (0.1%) (Merck) mixed with sodium phosphate buffer, pH 4.5 in a glass bottle, and healed in a boiling water bath for 20 minutes to dissolve with released glucose measured using ‘Trinder’ glucose detection solution (Sigma).
# (§2) All enzymes and para-nitrophenyl substrates were purchased from Sigma, with the exception of beta-mannosidase which came from Megazyme. Enzymes were assayed at 27° C. in 0.1M citric acid/0.2M disodium hydrogen phosphate buffers at the optimum pH for the enzyme. The incubation mixture consisted of 10 μl enzyme solution, 10 μl of 1 mg/ml aqueous solution of extract and 50 μl of the appropriate 5 mM para-nitrophenyl substrate made up in buffer at the optimum pH for the enzyme. The reactions were stopped by addition of 70 μl 0.4M glycine (pH 10.4) during the exponential phase of the reaction, which had been determined at the beginning using uninhibited assays in which water replaced inhibitor. Final absorbances were read at 405 nm using a Versamax microplate reader (Molecular Devices). Assays were carried out in triplicate, and the values given are means of the three replicates per assay. (See Watson, A. A., Nash, R. J., Wormald, M. R., Harvey, D. J., Dealler, S., Lees, E., Asano, N., Kizu, H., Kato, A., Griffiths, R. C., Cairns, A. J. and Fleet, G. W. J. (1997). Glycosidase-inhibiting pyrrolidine alkaloids from Hyacinthoides non-scripta. Phytochemistry 46 (2): 255-259.)
# [1] = target: α-D-glucosidase (Bacillus) (Geobacillus stearothermophilus, UniProt A0ACH1E9U3); experiment: Glycosidase inhibition: α-D-glucosidase (Bacillus); conditions: compounds tested at 0.8 mM
# From the text: as §1, §2
# α-D-glucosidase (Rice) = target: T2, α-D-glucosidase (Rice) (Oryza sativa subsp. japonica, UniProt Q653V7); experiment: Glycosidase inhibition: α-D-glucosidase (Rice); conditions: compounds tested at 0.8 mM
# T2 construct: purchased Sigma
# T2 sequence (Q653V7 34-885): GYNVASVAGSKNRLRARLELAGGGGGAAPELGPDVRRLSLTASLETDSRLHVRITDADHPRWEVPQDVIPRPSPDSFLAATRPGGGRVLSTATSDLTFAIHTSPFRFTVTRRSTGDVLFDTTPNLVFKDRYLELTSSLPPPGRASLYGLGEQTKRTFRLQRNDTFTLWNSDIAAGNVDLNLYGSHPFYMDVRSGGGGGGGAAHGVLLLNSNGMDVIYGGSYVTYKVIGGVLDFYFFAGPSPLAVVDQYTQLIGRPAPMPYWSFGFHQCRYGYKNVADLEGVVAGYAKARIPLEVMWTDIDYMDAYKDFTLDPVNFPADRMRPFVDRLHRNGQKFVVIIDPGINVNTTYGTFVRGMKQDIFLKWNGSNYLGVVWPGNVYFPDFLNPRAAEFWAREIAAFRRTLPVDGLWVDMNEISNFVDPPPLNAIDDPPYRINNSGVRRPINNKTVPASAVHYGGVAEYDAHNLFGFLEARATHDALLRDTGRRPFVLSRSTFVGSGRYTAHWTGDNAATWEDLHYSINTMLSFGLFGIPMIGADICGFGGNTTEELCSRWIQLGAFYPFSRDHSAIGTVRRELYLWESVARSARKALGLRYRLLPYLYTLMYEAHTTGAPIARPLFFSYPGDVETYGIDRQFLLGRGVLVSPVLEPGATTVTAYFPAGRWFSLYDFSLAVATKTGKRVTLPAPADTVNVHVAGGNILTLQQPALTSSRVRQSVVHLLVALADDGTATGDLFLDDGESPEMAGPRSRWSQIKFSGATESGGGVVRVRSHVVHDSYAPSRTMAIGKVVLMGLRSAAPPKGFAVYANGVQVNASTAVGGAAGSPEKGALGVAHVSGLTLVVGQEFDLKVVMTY
# β-D-glucosidase (Almond) = experiment: Glycosidase inhibition: β-D-glucosidase (Almond); conditions: compounds tested at 0.8 mM
# From the text: as §1
# as §2, with “(See Watson, A. A., Nash, R. J., Wormald, M. R., Harvey, D. J., Dealler, S., Lees, E., Asano, N., Kizu, H., Kato, A., Griffiths, R. C., Cairns, A. J. and Fleet, G. W. J. (1997). Glycosidase-inhibiting pyrrolidine alkaloids from Hyacinthoides non-scripta. Phytochemistry 46 (2): 255-259.)” left out
# [2] = target: T3, α-D-galactosidase Green coffee bean (Coffea arabica, UniProt Q42656); experiment: Glycosidase inhibition: α-D-galactosidase Green coffee bean; conditions: compounds tested at 0.8 mM
# T3 construct: α-D-galactosidase (Green coffee beans); purchased Sigma; host or cells: green coffee beans
# T3 sequence (Q42656 16-378): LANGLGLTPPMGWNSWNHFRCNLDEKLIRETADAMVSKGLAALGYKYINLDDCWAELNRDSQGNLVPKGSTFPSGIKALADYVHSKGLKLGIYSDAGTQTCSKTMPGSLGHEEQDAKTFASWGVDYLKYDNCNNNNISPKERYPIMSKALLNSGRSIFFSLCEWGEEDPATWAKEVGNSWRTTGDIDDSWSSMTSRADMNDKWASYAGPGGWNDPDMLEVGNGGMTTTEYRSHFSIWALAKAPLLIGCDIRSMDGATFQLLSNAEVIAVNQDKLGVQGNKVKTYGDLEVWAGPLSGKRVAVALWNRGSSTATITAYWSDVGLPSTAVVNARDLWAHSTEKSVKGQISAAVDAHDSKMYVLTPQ
# From the text: as §1, §2
# [3] = system: β-D-galactosidase Bovine liver; experiment: Glycosidase inhibition: β-D-galactosidase Bovine liver; conditions: compounds tested at 0.8 mM
# From the text: as §1, §2
# [4] = system: β-D-mannosidase Cellullomonas fimi; experiment: Glycosidase inhibition: β-D-mannosidase Cellullomonas fimi; conditions: compounds tested at 0.8 mM
# Method: as §2
# [5] = system: Naringinase Penicillium decumbens; experiment: Glycosidase inhibition: Naringinase Penicillium decumbens; conditions: compounds tested at 0.8 mM
# From the text: as §1
# as §2, with “(See Watson, A. A., Nash, R. J., Wormald, M. R., Harvey, D. J., Dealler, S., Lees, E., Asano, N., Kizu, H., Kato, A., Griffiths, R. C., Cairns, A. J. and Fleet, G. W. J. (1997). Glycosidase-inhibiting pyrrolidine alkaloids from Hyacinthoides non-scripta. Phytochemistry 46 (2): 255-259.)” left out
# [6] = system: N-acetyl-β-D-glucosaminidase (Bovine kidney); experiment: Glycosidase inhibition: N-acetyl-β-D-glucosaminidase (Bovine kidney); conditions: compounds tested at 0.8 mM;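 also: enzyme activity followed by cleavage of the matching p-nitrophenyl glycoside (5 mM) in phosphate buffer set to the enzyme's optimal pH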
# [7] = system: N-acetyl-β-D-glucosaminidase (Jack bean); experiment: Glycosidase inhibition: N-acetyl-β-D-glucosaminidase (Jack bean); conditions: compounds tested at 0.8 mM
# From the text: as §1
# as §2, with “(See Watson, A. A., Nash, R. J., Wormald, M. R., Harvey, D. J., Dealler, S., Lees, E., Asano, N., Kizu, H., Kato, A., Griffiths, R. C., Cairns, A. J. and Fleet, G. W. J. (1997). Glycosidase-inhibiting pyrrolidine alkaloids from Hyacinthoides non-scripta. Phytochemistry 46 (2): 255-259.)” left out
# [8] = target: T4, N-acetyl-β-D-glucosaminidase (A. oryzae) (Aspergillus oryzae, UniProt Q8J2T0); experiment: Glycosidase inhibition: N-acetyl-β-D-glucosaminidase (A. oryzae); conditions: compounds tested at 0.8 mM
# T4 construct: purchased Sigma
# T4 sequence (Q8J2T0 97-600): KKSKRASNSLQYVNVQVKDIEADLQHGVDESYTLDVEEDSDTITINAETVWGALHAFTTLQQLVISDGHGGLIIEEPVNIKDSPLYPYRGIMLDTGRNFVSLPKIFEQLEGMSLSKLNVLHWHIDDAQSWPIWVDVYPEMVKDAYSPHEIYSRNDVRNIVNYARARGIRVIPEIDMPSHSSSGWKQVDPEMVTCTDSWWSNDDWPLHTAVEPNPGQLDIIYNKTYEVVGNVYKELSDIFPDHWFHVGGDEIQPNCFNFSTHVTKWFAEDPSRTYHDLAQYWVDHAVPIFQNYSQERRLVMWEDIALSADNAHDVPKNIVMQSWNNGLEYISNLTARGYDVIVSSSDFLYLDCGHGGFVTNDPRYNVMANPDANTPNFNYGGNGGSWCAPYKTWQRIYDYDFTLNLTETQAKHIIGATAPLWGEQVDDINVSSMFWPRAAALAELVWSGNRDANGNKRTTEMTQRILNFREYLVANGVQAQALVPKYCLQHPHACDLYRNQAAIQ
# From the text: as §1, §2
# [9] = target: T5, Amyloglucosidase Aspergillus niger (Aspergillus niger, UniProt P69328); experiment: Glycosidase inhibition: Amyloglucosidase Aspergillus niger; conditions: compounds tested at 0.8 mM
# T5 construct: purchased Sigma
# T5 sequence (P69328 25-640): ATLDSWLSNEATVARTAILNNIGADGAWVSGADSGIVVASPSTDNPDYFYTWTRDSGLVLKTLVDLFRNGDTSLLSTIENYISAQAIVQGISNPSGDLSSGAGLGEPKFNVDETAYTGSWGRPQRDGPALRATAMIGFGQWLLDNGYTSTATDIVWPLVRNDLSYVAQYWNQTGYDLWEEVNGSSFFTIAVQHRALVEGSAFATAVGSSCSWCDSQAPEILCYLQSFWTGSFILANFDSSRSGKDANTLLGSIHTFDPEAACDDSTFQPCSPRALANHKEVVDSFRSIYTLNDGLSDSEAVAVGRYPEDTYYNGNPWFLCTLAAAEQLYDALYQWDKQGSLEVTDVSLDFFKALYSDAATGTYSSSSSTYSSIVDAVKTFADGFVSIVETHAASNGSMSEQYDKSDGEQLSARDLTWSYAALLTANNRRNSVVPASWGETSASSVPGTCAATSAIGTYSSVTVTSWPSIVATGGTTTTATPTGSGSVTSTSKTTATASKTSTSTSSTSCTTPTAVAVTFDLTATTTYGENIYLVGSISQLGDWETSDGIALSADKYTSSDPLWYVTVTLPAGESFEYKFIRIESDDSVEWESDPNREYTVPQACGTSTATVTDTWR
# From the text: as §1, §2
# [10] = target: T6, β-Glucuronidase Bovine liver (Bos taurus, UniProt A3KMY8); experiment: Glycosidase inhibition: β-Glucuronidase Bovine liver; conditions: compounds tested at 0.8 mM;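 also: bovine liver β-glucuronidase acting on p-nitrophenyl β-D-glucuronide substrate in citric acid/disodium hydrogen phosphate buffer, pH 5.0, 27 °C, mean of triplicate runs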
# T6 construct: The assay involved the use of Bovine liver β-glucuronidase; purchased Sigma; host or cells: bovine liver
# T6 sequence (A3KMY8 1-652): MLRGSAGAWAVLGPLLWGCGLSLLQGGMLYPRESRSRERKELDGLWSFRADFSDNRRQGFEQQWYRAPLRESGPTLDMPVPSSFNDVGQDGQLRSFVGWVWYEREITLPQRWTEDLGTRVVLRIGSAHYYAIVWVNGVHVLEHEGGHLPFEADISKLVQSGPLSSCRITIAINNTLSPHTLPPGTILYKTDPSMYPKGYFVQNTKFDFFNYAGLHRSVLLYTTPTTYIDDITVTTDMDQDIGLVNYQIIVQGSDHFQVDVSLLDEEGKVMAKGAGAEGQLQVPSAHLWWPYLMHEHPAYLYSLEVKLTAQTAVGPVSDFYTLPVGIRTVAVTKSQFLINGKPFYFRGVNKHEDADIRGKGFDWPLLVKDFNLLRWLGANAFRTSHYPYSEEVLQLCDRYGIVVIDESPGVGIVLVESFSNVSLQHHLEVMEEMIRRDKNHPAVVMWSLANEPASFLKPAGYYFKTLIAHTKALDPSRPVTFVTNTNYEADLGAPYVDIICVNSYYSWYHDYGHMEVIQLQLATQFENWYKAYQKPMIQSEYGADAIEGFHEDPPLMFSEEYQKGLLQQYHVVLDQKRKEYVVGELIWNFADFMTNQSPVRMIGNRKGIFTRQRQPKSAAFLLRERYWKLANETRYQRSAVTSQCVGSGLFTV
# [11] = target: T7, rabbit intestinal sucrase (Oryctolagus cuniculus, UniProt P07768); experiment: Rabbit disaccharidase inhibition assay: sucrase; conditions: NI: no inhibition at 0.8 mM
# T7 construct: The small intestine was dissected out of a female wild rabbit; from tissue; host or cells: small-intestinal mucosa of a female wild rabbit
# T7 sequence (P07768 whole entry): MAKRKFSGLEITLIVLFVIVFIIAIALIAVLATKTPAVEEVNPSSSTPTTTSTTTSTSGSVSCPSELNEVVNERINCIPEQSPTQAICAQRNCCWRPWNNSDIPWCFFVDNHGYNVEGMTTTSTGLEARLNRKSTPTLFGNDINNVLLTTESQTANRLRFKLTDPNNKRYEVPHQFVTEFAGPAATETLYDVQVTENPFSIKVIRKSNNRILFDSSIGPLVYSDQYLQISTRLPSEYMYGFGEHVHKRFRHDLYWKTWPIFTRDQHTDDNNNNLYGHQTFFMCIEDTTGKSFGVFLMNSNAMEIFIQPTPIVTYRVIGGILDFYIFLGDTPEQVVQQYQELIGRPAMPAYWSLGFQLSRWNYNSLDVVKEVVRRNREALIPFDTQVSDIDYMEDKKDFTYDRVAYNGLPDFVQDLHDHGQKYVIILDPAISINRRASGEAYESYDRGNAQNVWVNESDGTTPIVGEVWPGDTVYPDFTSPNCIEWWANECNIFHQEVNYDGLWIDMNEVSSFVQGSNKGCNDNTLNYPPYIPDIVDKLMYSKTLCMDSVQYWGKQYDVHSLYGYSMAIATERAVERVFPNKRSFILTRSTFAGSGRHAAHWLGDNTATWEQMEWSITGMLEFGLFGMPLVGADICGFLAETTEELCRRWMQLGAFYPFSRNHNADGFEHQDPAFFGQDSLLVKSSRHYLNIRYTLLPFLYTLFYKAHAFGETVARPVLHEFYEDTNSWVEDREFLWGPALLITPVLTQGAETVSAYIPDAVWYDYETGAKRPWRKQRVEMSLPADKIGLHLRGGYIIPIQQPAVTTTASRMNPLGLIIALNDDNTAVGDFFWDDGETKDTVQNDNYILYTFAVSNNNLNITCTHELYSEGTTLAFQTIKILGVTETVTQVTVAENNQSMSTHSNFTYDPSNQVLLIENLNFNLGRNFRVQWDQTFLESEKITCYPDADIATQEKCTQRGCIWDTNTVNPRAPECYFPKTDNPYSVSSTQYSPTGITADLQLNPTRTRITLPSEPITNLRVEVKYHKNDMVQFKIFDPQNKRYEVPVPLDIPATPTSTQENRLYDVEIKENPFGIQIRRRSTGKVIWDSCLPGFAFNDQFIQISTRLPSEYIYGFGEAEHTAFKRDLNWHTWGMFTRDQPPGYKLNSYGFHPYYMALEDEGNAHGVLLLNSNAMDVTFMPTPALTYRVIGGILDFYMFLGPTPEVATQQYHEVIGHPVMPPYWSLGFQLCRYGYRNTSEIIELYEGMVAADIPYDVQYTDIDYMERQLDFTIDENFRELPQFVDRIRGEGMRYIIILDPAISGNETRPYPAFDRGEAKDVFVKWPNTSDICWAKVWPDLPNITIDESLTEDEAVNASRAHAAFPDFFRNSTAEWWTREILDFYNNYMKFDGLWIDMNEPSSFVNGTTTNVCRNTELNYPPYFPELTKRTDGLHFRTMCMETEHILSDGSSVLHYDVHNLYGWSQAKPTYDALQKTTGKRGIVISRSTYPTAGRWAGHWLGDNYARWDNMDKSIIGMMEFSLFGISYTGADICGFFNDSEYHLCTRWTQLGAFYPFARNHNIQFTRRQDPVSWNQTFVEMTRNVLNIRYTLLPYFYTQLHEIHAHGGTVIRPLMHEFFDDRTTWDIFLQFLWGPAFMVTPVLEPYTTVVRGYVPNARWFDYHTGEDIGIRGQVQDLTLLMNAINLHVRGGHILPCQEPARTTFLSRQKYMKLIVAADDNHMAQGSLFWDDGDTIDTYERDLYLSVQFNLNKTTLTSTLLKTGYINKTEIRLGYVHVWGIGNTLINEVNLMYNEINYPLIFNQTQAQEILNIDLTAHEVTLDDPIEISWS
# Method: (§3) Sucrose (8.3 mM), maltose (5 mM) and isomaltose (6.3 mM) substrates were made using 0.2 M Macllvaine (citrate-phosphate) buffer, pH 6.0. The glucose detection reagent was prepared according to the supplier's instructions (Megazyme Ltd). Linearity of the timecourse of the reaction between the glucose detection reagent and glucose was tested using a series of glucose dilutions.
# (§4) The method for preparation of mammalian small intestine mucosal disaccharidases was based on Griffiths (1998), omitting ammonium sulphate fractionation steps. The small intestine was dissected out of a female wild rabbit, and opened longitudinally using a scalpel. The mucosal layer was scraped off using the edge of a clean microscope slide, and placed into 3 ml of dH2O. The mucosal layer suspension was centrifuged at around 1000 rpm for 30 seconds to sediment tissue debris. The supernatant ([…]) was removed, and centrifuged again at 3500 rcf for 1 minute to remove fine particulates from suspension. The supernatant was diluted to give 0.2-0.25 mg/ml protein and stored at −30° C.
# (§5) Enzyme assays were carried out using 5-15 μl of enzyme preparation, 5 μl of test compound (or dH2O for controls) and 15-25 μl of substrate solution. Reactions were covered using a sheet of plate sealing film, and incubated at 37° C. for 60 minutes. Glucose (from disaccharide hydrolysis) was quantified by adding 200 μl of glucose detection reagent and incubating the reactions for a further twenty-five minutes. Absorbance was measured at 510 nm against control blanks.
# [12] = target: rabbit intestinal maltase; experiment: Rabbit disaccharidase inhibition assay: maltase; conditions: NI: no inhibition at 0.8 mM
# Method: as §3, §4, §5
# [13] = target: T8, rabbit intestinal isomaltase (Oryctolagus cuniculus, UniProt P07768); experiment: Rabbit disaccharidase inhibition assay: isomaltase; conditions: NI: no inhibition at 0.8 mM
# T8 construct: The small intestine was dissected out of a female wild rabbit; from tissue; host or cells: small-intestinal mucosa of a female wild rabbit
# T8 sequence (P07768 whole entry): as above
# Method: as §3, §4, §5
# T1 sequence (P53341 whole entry): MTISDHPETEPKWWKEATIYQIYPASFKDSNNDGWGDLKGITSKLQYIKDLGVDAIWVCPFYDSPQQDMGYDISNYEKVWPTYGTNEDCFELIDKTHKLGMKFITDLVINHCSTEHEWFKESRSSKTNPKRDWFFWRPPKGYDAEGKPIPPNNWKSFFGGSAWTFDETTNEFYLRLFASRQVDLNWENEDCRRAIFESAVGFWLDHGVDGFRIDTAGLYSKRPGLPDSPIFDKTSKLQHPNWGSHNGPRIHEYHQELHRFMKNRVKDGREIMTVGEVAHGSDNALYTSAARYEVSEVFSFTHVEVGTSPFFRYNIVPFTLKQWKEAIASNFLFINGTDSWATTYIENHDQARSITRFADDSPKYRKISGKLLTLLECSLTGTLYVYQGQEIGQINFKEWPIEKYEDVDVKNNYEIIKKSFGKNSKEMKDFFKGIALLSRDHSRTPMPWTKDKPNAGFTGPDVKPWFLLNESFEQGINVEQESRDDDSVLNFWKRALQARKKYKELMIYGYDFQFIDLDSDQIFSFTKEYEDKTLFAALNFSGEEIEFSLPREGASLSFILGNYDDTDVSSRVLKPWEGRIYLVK
IC50 [11] [nM],IC50 [12] [nM],IC50 [13] [nM],Compound,inhibition at 800 µM (α-D-glucosidase (Yeast)) [%],inhibition at 800 µM [1] [%],inhibition at 800 µM (α-D-glucosidase (Rice)) [%],"% inhibition, β-D-glucosidase (Almond) (β-D-glucosidase (Almond)) [%]",inhibition at 800 µM [2] [%],"% inhibition, β-D-galactosidase Bovine liver [3] [%]","% inhibition, β-D-mannosidase Cellullomonas fimi [4]","% inhibition, Naringinase Penicillium decumbens [5] [%]","% inhibition, N-acetyl-β-D-glucosaminidase (Bovine kidney) [6]","% inhibition, N-acetyl-β-D-glucosaminidase (Jack bean) [7]",inhibition at 800 µM [8] [%],inhibition at 800 µM [9] [%],inhibition at 800 µM [10] [%]
,,,"OCCN1C[C@H](O)[C@@H](O)[C@H](O)[C@H]1CO [Miglitol, reference compound]",< 5,83,100,99,19,87,NI (NI = no inhibition),26,NI (NI = no inhibition),NI (NI = no inhibition),< 5,78,< 5
220,970,190,"CCCCN1C[C@H](O)[C@@H](O)[C@H](O)[C@H]1CO [Zavesca, N-butyl-DNJ, reference compound]",,,,,,,,,,,,,
